Measured values published in patent US5252562A, “Acetohydroxamic compound and complexes pharmaceutical compositions containing them and processes of preparation and use” (Gruenenthal GmbH, priority 1991, dated 1993).
Converted amounts (≈) assume the structure as drawn.

Experiments:
5 lipoxygenase = target: T1, 5 lipoxygenase (Homo sapiens, UniProt P09917); assay: inhibition of 5 lipoxygenase in human blood (A23187-induced iLTB4 formation, RIA); assay type: cell-based; conditions: heparinized human blood, A23187 15 μg/ml, 30 minutes at 37° C., iLTB4 by RIA; read-out: IC50-value, concentration causing an inhibition of 50% of 5 lipoxygenase
T1 construct: endogenous in cells; host or cells: freshly drawn, heparinized human whole blood (blood leukocytes; the cell type is own knowledge)
T1 sequence (P09917 1-674): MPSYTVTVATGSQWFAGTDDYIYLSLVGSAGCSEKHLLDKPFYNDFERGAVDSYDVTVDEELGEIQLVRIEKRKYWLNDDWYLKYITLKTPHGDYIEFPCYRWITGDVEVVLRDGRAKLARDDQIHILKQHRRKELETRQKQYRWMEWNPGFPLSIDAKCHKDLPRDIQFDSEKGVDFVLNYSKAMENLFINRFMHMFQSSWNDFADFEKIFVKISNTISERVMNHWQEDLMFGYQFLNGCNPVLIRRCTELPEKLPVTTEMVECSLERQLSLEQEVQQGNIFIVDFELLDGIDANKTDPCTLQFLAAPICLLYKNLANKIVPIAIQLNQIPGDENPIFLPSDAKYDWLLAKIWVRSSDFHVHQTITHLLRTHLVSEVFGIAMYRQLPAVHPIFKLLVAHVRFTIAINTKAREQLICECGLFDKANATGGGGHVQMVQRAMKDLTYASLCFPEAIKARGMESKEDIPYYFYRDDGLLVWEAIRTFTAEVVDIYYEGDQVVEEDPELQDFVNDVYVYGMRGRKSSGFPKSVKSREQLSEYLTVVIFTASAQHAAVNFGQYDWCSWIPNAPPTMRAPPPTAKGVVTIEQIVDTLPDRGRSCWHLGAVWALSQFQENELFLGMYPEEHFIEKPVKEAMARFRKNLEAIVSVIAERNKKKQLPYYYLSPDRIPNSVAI
Protocol: To determine the inhibition of 5 lipoxygenase, aliquots of freshly drawn, heparinized human blood were incubated at 37° C. in a water bath with addition of either N Hydroxy-N-(thien-3-yl)methyl-acetamide in different concentrations or a solvent. After 5 minutes the calcium ionophore A23187 was added to an end concentration of 15 μg/ml blood, and the incubation was continued for 30 minutes at 37° C. Then the samples were centrifuged to collect the cell free plasma. The content of the immunoreactive leucotriene B4 (iLTB4), in each sample was determined by radioimmunoassay "RIA" (^3 H-LTB4 -RIA, Amersham) with reference to a LTB4 standard curve and was calculated as ng iLTB4 /ml plasma. The percentage inhibition caused by the acetohydroxamic acid compound of formula I at various concentrations was calculated in comparison to the aliquots incubated with solvent only. N-hydroxy-N-(thien-3-yl)methyl-acetamide has an IC50 -value, i.e. the concentration causing an inhibition of 50% of 5 lipoxygenase, of 0.3 μmolar.

toxicity = conditions: observed only at far higher doses than therapeutic or prophylactic doses
cell-free 5 lipoxygenase = assay: 5 lipoxygenase activity polarographically measured in 10,000×g supernatant of homogenized rat basophilic leukemia cells; release from complex; assay type: biochemical; conditions: RBL 10,000×g supernatant, arachidonic acid 75 μM, 5 minutes at 35° C.; complex of Example 3 versus free compound
Protocol: To determine the rate and the extent of the release of N hydroxy-[…])methyl-acetamide from the complex prepared according to Example 3, the 5 lipoxygenase activity of cell-free 5 lipoxygenase was polarographically measured with oxygen electrodes in 10,000×g supernatant from homogenized rat basophilic leukemia cells (RBL i cells). After incubation of the 10,000×g supernatant with arachidonic acid (75 μM), adenosine triphosphate (4 mM), glutathione (4 mM), and either N hydroxy-[…])methyl-acetamide or a solvent for 5 minutes at 35° C., the lipoxygenase reaction was initiated by addition of calcium chloride and plotted simultaneously. The evaluation included the duration of the lag-phase as well as the initial rate of the reaction after the lag-phase. […] A significant amount of the acetohydroxamic acid compound is fully available in the biological test system even when the compound is originally administered in the form of a complex.

solubility = assay type: physicochemical
cyclooxygenase = target: T2, cyclooxygenase (Ovis aries, UniProt P05979); assay: activity of cyclooxygenase in sheep seminal vesicle microsomes ([14C]-arachidonic acid, TLC); assay type: biochemical; conditions: potassium phosphate buffer pH 7.0
T2 sequence (P05979 25-600): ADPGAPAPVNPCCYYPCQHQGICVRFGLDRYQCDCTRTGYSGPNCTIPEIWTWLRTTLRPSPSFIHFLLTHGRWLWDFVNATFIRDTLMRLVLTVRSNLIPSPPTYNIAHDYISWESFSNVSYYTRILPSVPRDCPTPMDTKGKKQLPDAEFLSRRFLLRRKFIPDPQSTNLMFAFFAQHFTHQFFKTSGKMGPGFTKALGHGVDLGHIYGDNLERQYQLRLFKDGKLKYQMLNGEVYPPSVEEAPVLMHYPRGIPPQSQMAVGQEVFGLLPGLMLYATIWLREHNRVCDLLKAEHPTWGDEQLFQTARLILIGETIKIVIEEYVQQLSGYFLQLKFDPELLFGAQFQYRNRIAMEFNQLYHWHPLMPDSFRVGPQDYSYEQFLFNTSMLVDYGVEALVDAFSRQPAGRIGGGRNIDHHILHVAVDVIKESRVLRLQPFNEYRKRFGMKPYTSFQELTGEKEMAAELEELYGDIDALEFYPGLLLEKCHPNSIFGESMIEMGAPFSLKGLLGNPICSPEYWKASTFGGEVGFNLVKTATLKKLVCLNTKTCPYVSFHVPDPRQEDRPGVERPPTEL
Protocol: The effect of the acetohydroxamic acid compound of formula I on the activity of cyclooxygenase was tested using a suspension of sheep seminal vesicle microsomes in […] of potassium phosphate buffer of pH 7.0 which was incubated either with N-hydroxy-N-(thien-3-yl)methyl-acetamide or with a solvent only and [^14 C]-arachidonic acid. The IC50 values, i.e. the concentrations causing an inhibition of 50% of cyclooxygenase were determined by thin layer chromatography using a TLC-linear-analyzer.

5-lipoxygenase = assay: ex vivo iLTB4-formation in whole blood of rats after oral administration (bioavailability); set-up: species or system rat (Wistar strain, male)
Protocol: The bioavailability of the compound of formula I was characterized by means of an ex vivo biochemical assessment method described by Tateson et al. in Brit. J. Pharmacol. 528 (1988): N-Hydroxy-N-(thien-3-yl)methyl-acetamide was orally administered in a dose of 21.5 mg/kg to male rats (Wistar strain). One hour later blood was taken from the rats in lethal CO2 -narcosis. Aliquots of the blood were incubated for 30 minutes at 37° C. in a water bath with addition of calcium ionophore A 23 187 to an end concentration of 15 μg/ml. At the end of the incubation the samples were centrifuged to collect the cell free plasma. The concentration of the immunoreactive LTB4 (iLTB4 ng/ml) in each plasma sample was determined by radioimmunoassay (^3 H-LTB4 -RIA, Amersham) by means of a LTB4 -standard curve in diluted rat plasma. To determine the percent inhibition of ex vivo iLTB4 -formation in whole blood of rats treated with the compound of formula I, rats orally treated with an appropriate vehicle solution were included in all experiments, aliquots of their blood were run in parallel and were processed in the same manner as described. The mean iLTB4 formation per ml plasma of these vehicle treated rats served as the 100% value of normal 5-lipoxygenase activity. The percent inhibition of the ex vivo iLTB4 -formation after oral administration of the compound of formula I was calculated according to the following formula: […]
where Q represents the mean iLTB4 content in ng […] per ml plasma of the rats treated with the compound of formula I and C represents the mean iLTB4 content in ng iLTB4 per ml plasma of rats treated only with the vehicle.

guinea pigs = assay: antiasthmatic effect: ovalbumin-induced bronchoconstriction in anesthetized, ventilated, passively sensitized guinea pigs (Konzett-Roessler); assay type: in vivo, guinea pig
Protocol: The antiasthmatic effect of the compound according to the invention was tested in anesthetized and ventilated guinea pigs. In order to induce an asthmatic reaction, the animals were passively sensitized with a single intraperitoneal injection of antiovalbumin serum. After 48 hours the asthmatic reaction was elicited by intravenous challenge with 0.2 mg/kg of ovalbumin. The immediately resulting bronchoconstriction was measured as an increase in overflow according to the Konzett-Roessler method for a period of 10 minutes (Naunyn Schiedeberg's Arch. Exp. Path. Pharma. Vol. 195, 71-74 (1940)). Effects caused by histamine, serotonin and sympathic counterreaction were eliminated by intravenous pretreatment with 2.15 mg/kg of mepyramine, […] of propranolol, 4.64 mg/kg of atropine and 1 mg/kg of methysergide, all given 5 minutes before challenge. N-Hydroxy-N-(thien-3-yl)methyl-acetamide was orally administered 60 minutes before, intravenously administered 30 minutes before, and locally administered 2 minutes before the administration of ovalbumin.

[1] = system: isolated tracheal strips of guinea pigs; assay: anti-anaphylactic effect: ovalbumin-induced anaphylactic constrictions of isolated tracheal strips; assay type: cell-based, guinea pig; conditions: Cavia porcellus; tracheal strips of actively sensitized guinea pigs, with mepyramine and indomethacin, 37° C.; Example 3 based on the complexed N-hydroxy-N-(thien-3-yl)methyl-acetamide content; read-out: IC50-value, inhibition of 50% of the anaphylactic constrictions
Protocol: The anti-anaphylactic effect of N-hydroxy-[…])methyl-acetamide was tested using an in vitro model. […] The organs were connected to isometric force transducers. After incubation with mepyramine (elimination of histamine) and indomethacin (inhibition of cyclooxygenase resulting in an increase of the anaphylactic reaction) ovalbumin was added to the organ bath in cumulatively increasing concentrations. The resulting anaphylactic constrictions were inhibited by N-hydroxy-[…])methyl-acetamide which was added to the organ bath before the anaphylactic constrictions were elicited.

In the case of `CC(=O)N(O)Cc1ccsc1` [Example 1, N-hydroxy-N-(thien-3-yl)methyl-acetamide], the IC50 (5 lipoxygenase) is reported as 300 nM, the degree of toxicity (toxicity) is reported as “low degree of toxicity” and the “inhibition of the 5 lipoxygenase reaction” value (cell-free 5 lipoxygenase) is reported as “comparable effects”. The “prolongation of the lag-phase of the 5 lipoxygenase reaction” value (cell-free 5 lipoxygenase) was “comparable effects”, the solubility (solubility; organic solvent or mixture, water/ethanol 4:1 mixture) was 3000 µg/mL (≈ 17.5 mM) and the solubility (solubility; phosphate buffer/ethanol 4:1, organic solvent or mixture, phosphate buffer (pH 7.4)/ethanol, 4:1 mixture) was 3000 µg/mL (≈ 17.5 mM). The “IC50-values for the inhibition of cyclooxygenase compared with IC50-values for 5-lipoxygenase” value (cyclooxygenase) was “significantly higher than the IC50 -values for the inhibition of 5-lipoxygenase”, the “percent inhibition of the ex vivo iLTB4-formation” value (5-lipoxygenase; 21.5 mg/kg oral, male Wistar rats, blood taken one hour later, A23187 15 μg/ml) was 95% and the oral availability (5-lipoxygenase; oral, 21.5 mg/kg, rats, concluded from ex vivo iLTB4 inhibition) was “excellent oral availability”. For the same compound, the “calculated dose with a semi-maximum inhibiting effect after oral administration” value (5-lipoxygenase; oral, rats, ex vivo iLTB4-formation, 60 min) was 5.6 mg/kg, the inhibition of bronchoconstriction (guinea pigs; 21.5 mg/kg oral, 60 minutes before ovalbumin) was 42% and the “resorption of the acetohydroxamic acid compound” value (guinea pigs; oral 21.5 mg/kg (free) versus intravenous 21.5 mg/kg (complex), guinea pigs) was “high resorption”. For the same compound, the IC50 [1] was 10.2 µM.
